According to patent publication US7482358B2, “Imidazoline compounds” (Banyu Pharmaceutical Co., Ltd., priority 2000, dated 2009):
Like-named read-outs stand apart in the source and are kept apart here.

Experiments:
human NPY Y5 receptor = target: T1, human NPY Y5 receptor (Homo sapiens, UniProt Q15761); assay: NPY binding inhibition test ([125I] peptide YY binding to membranes of cells expressing NPY Y5 receptor); settings: against specific [125I] peptide YY binding, 25° C., 2 hours; read-out: IC50, inhibitory activities on NPY receptor binding
T1 construct: expressed in transfected cells; host or cells: COS-7, CHO and LM(tk-)
T1 sequence (Q15761 1-445): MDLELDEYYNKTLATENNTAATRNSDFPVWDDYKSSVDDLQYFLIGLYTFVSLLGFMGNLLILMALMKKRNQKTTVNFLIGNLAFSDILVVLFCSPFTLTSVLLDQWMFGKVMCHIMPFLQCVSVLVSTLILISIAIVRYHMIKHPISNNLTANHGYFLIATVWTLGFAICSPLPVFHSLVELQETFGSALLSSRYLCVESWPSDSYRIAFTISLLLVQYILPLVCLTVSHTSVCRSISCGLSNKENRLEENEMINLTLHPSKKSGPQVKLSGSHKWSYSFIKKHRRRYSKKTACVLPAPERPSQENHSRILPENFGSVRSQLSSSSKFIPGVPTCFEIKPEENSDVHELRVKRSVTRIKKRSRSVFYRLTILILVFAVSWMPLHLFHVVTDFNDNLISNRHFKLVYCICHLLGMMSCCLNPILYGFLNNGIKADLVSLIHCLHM
Method: These obtained expression vectors were transfected to host cells COS-7, CHO and LM(tk-)(American Type Culture Collection) by cationic lipid method (Confer Proceedings of the National Academy of Sciences of the United States of America, vol. 84:7413(1987)) to give recombinant cells which express NPY Y5 receptor.
A membrane sample prepared from the cells which expressed NPY Y5 receptor was incubated together with a test compound and (^125I) peptide YY (made by NEN) (20,00 cpm) in an assay buffer (25 mM Tris buffer, pH7.4, containing 10 mM magnesium chloride, 1 mM phenylmethylsulfonyl fluoride, 0.1% bacitracin and 0.5% bovine serum albumin) at 25° C. for 2 hours, then filtered through a glass filter GF/C and washed with 5 mM Tris buffer (pH7.4) containing 0.3% BSA. The radioactivity on the glass filter was measured. Nonspecific binding was measured in the presence of 1 μM peptide YY and a 50% Inhibitory Concentration (IC50) of the test compound against specific peptide YY binding was determined (Confer Endocrinology, vol. 131: 2090(1992)).

[1] = Test for pharmacokinetics; assay type: in vivo; settings: male SD rats, overnight fasting, oral or intravenous
Method: Pharmacological Test 3 (Test for Pharmacokinetics)
The tested compound was administered orally or intravenously to male SD rats (7-10 weeks old, 200-400 g) under overnight fasting condition, and about 100 μL of blood was taken from tail vein using a heparinized capillary at predefined time points. The blood samples were separated by centrifuge (4° C., 6,000 rpm, for 10 minutes) to obtain plasma. To the plasma, 3-fold volume of ethanol containing the internal standard substances was added and the mixture was stirred, then left at −20° C. for 20 minutes, followed by centrifugation (4° C., 10,000 rpm for 10 minutes). The supernatant was analyzed by LC/MS/MS and then the concentration of the test compound in plasma was measured by the relative calibration curve method.

[2] = Brain and cerebrospinal fluid penetration test; assay type: in vivo, male SD rats; settings: 2 hours after oral administration (10 mg/kg), rat; for concentration at 2 h: male, Sprague-Dawley
Method: Pharmacological Test 4 (Brain and Cerebrospinal Fluid Penetration Test)
The tested compound was administered orally or intravenously to male SD rats (7-10 weeks old, 200-400 g). The rats anesthetized with ether, and the all blood were taken at predefined time points with a heparinized syringe from the abdominal aorta. Further, the rats were cut the skin of occipital region of head and inserted a 30 G dental needle between cervical vertebrae, into subarachnoid cavity. And then, 50-100 μL of cerebrospinal fluid was collected in a 1 mL syringe through a tube connected with the 30G dental needle, followed by taking out the brain. To the plasma obtained from the centrifuged blood sample (4° C., 6,000 rpm, for 10 minutes), 3-fold volume of ethanol including the internal standard substances was added and the mixture was stirred. To the brain sample, 2 mL of water was added and the mixture was homogenized. To an aliquot of the homogenized mixture, 3-fold volume of ethanol including the internal standard substances was added, followed by stirring. To the cerebrospinal fluid, 3-fold volume of ethanol containing the internal standard substances was added, followed by stirring. The above samples were left at −20° C. for 20 minutes and separated by centrifuge (4° C., 12,000 g, for 10 minutes). The supernatant was analyzed by LC/MS/MS and then each concentration in plasma, brain and cerebrospinal fluid was measured by the relative calibration curve method.

Row | SMILES | melting point [°C] | other results
1 | N#Cc1cccc(C2=NC(c3cccc(F)c3)(c3cccc(F)c3)CN2)c1 [Example 5-1, 2-(3-cyanophenyl)-4,4-bis(3-fluorophenyl)-2-imidazoline] | – | IC50 (human NPY Y5 receptor): 2.3 nM
2 | Cc1ccc(C2(c3ccccc3)CNC(c3cccc(C#N)c3)=N2)cc1 (stereo not shown) [Example 5-11, 2-(3-cyanophenyl)-4-(4-methylphenyl)-4-phenyl-2-imidazoline] | 179 to 180 | –
3 | O=[N+]([O-])c1cccc(C2=NC(c3ccc(F)cc3)(c3ccc(F)cc3)CN2)c1 [Example 5-13, 4,4-bis(4-fluorophenyl)-2-(3-nitrophenyl)-2-imidazoline] | 156 to 158 | –
4 | CN(C)c1ccc(C2(c3ccccc3)CNC(c3cccc(C#N)c3)=N2)cc1 (stereo not shown) [Example 5-27, 2-(3-cyanophenyl)-4-(4-dimethylaminophenyl)-4-phenyl-2-imidazoline] | 210 to 213 | –
5 | c1ccc(C2(c3ccccc3)CNC(c3cnccn3)=N2)cc1 [Example 5-31, 4,4-diphenyl-2-pyrazinyl-2-imidazoline] | 183 to 184 | –
6 | CS(=O)(=O)c1cccc(C2=NC(c3ccc(F)cc3)(c3ccc(F)cc3)CN2)c1 [Example 5-34, 4,4-bis(4-fluorophenyl)-2-(3-methylsulfonylphenyl)-2-imidazoline] | 209 to 212 | –
7 | N#Cc1cccc(C2=NC(c3ccccc3)(C3CCCCC3)CN2)c1 (stereo not shown) [Example 5-42, 2-(3-cyanophenyl)-4-cyclohexyl-4-phenyl-2-imidazoline] | 151 to 152 | –
8 | N#Cc1cccc(C2=NC(c3ccccc3)(C3CCC3)CN2)c1 (stereo not shown) [Example 5-46, 2-(3-cyanophenyl)-4-cyclobutyl-4-phenyl-2-imidazoline] | 117 to 118 | –
9 | CC1NC(c2cnccn2)=NC1(c1ccc(F)cc1)c1ccc(F)cc1 (stereo not shown) [Example 7, 4,4-bis(4-fluorophenyl)-5-methyl-2-pyrazinyl-2-imidazoline] | – | half-life ([1]; Sprague-Dawley, rat, plasma, read-out: half-life in blood (converted)): 306 min; biological availability ratio [1]: 35%; cerebral concentration [2]: 2.95 nM/g; concentration at 2 h ([2]; cerebrospinal fluid, read-out: cerebrospinal concentration): 32 nM; concentration at 2 h ([2]; plasma, read-out: plasma concentration): 730 nM; IC50 (human NPY Y5 receptor): 3.4 nM

Further lines, with some results ahead:

Row | melting point [°C] | SMILES | other results
10 | 114 to 117 | Fc1ccc(C2(c3ccc(F)cc3)CNC(c3cccc(OC(F)(F)F)c3)=N2)cc1 [Example 9-4, 4,4-bis(4-fluorophenyl)-2-(3-trifluoromethoxyphenyl)-2-imidazoline] | –
11 | 148 to 149 | Cc1cccc(C2=NC(c3ccc(F)cc3)(c3ccc(F)cc3)CN2)c1 [Example 9-6, 4,4-bis(4-fluorophenyl)-2-(3-methylphenyl)-2-imidazoline] | –
12 | 156 to 160 | Fc1ccc(C2(c3ccc(F)cc3)CNC(c3cccs3)=N2)cc1 [Example 9-7, 4,4-bis(4-fluorophenyl)-2-(2-thienyl)-2-imidazoline] | –
13 | 160 to 163 | Fc1ccc(C2(c3ccc(F)cc3)CNC(c3ccsc3)=N2)cc1 [Example 9-10, 4,4-bis(4-fluorophenyl)-2-(3-thienyl)-2-imidazoline] | –
14 | 169 to 171 | N#Cc1ccnc(C2=NC(c3ccc(F)cc3)(c3ccnc(F)c3)CN2)c1 (stereo not shown) [Example 14-2, 2-(4-cyano-2-pyridyl)-4-(4-fluorophenyl)-4-(2-fluoro-4-pyridyl)-2-imidazoline] | –
